ChEMBL document CHEMBL1129610, “3- and 4-pyridylalkyl adamantanecarboxylates: inhibitors of human cytochrome P450(17 alpha) (17 alpha-hydroxylase/C17,20-lyase). Potential nonsteroidal agents for the treatment of prostatic cancer” (J Med Chem, 1996)
pIC50: −log10 of the molar value. One block for each molecule: values may come before it.

What was measured:
in vitro [1] = conditions: rat, in vivo
Homo sapiens = species on record: Homo sapiens; format: functional, Blood
Mus musculus [2] = species on record: Mus musculus; format: functional, Blood
Rattus norvegicus [3] = species on record: Rattus norvegicus; format: functional, Blood
in vitro [4] = conditions: rat, in vivo; remark: listed apart in the source
[5] = biological target: T1, Steroid 17-alpha-hydroxylase/17,20 lyase (Homo sapiens, UniProt P05093)
T1 sequence (P05093 whole entry): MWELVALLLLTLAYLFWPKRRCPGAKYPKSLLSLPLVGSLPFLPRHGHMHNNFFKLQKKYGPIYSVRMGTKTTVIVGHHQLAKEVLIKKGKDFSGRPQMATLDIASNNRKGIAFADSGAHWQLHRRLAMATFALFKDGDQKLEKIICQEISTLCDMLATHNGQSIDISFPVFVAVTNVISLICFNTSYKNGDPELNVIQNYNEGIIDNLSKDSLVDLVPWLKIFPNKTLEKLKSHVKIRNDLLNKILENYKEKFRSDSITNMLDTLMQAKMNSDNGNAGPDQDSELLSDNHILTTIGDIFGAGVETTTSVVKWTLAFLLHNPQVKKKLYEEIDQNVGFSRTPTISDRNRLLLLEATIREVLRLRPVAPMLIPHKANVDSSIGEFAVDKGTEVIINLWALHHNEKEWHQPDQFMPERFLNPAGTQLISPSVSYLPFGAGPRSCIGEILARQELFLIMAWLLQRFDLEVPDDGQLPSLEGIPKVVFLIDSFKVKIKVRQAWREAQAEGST

[6] = biological target: T1, Steroid 17-alpha-hydroxylase/17,20 lyase; format: microsomes, Testis, Microsomes
Mus musculus [7] = species on record: Mus musculus; format: functional
Mus musculus [8] = species on record: Mus musculus; format: functional; remark: listed apart in the source
Rattus norvegicus [9] = species on record: Rattus norvegicus; format: functional
in vitro [10] = conditions: rat, in vivo; remark: listed apart in the source

Compound: O=C(OCc1ccncc1)C12CC3CC(CC(C3)C1)C2
Substrate metabolized at 1hr (Homo sapiens): 45%
Substrate metabolized at 1hr (Mus musculus [2]): 100%
Substrate metabolized at 1hr (Rattus norvegicus [3]): 100%
half-life at 1 min (in vitro [4]): < 60 s

Compound: C[C@@H](NC(=O)C12CC3CC(CC(C3)C1)C2)c1ccncc1
pIC50 [5]: 5.72
pIC50 [6]: 6.37

Compound: CC(C)(OC(=O)C12CC3CC(CC(C3)C1)C2)c1ccncc1
Substrate metabolized at 1hr (Mus musculus [7]): 2%
Substrate metabolized at 1hr (Mus musculus [8]): 0%
Substrate metabolized at 1hr (Rattus norvegicus [9]): 0%
half-life at 1 h (in vitro [10]): > 1 h

Now from value to molecule:

half-life (in vitro [1]): 30 s
Compound: C[C@@H](OC(=O)C12CC3CC(CC(C3)C1)C2)c1ccncc1

half-life (in vitro [1]): 30 s
Compound: C[C@H](OC(=O)C12CC3CC(CC(C3)C1)C2)c1ccncc1

pIC50 [5]: 6.09
pIC50 [6]: 6.68
Compound: C[C@H](NC(=O)C12CC3CC(CC(C3)C1)C2)c1ccncc1
